Values after ≈ are worked out from the molar mass of the structure shown. Active and inactive are the calls of the source. The calls are words filed in the database; no cut-off is given here.
Columns and labels:
[1] = molecular target: Epidermal growth factor receptor (Homo sapiens, UniProt P00533); test: Inhibition of wild type EGFR (unknown origin) expressed in Sf9 cells pre-incubated for 30 mins before substrate and ATP addition by homogeneous time-resolved FRET assay
NCI-H661 = test: Growth inhibition of human NCI-H661 cells incubated for 96 hrs by cell-titer Glo reagent based assay; assay type: functional; details: NCI-H661, 96 h
[2] = molecular target: T1, Epidermal growth factor receptor (Homo sapiens, UniProt P00533, L858R/T790M)
[3] = molecular target: T2, Epidermal growth factor receptor (Homo sapiens, UniProt P00533, L858R)
NCI-H1975 [4] = test: Growth inhibition of human NCI-H1975 cells expressing EGFR L858R/T790M mutant incubated for 96 hrs by cell-titer Glo reagent based assay; assay type: functional; details: NCI-H1975, 96 h
[5] = Growth inhibition of human HCC827 cells with exon 19 deletion and delE746-A750 incubated for 96 hrs by cell-titer Glo reagent based assay; assay type: functional; details: HCC827, 96 h
A-431 = test: Growth inhibition of human A431 cells incubated for 96 hrs by cell-titer Glo reagent based assay; assay type: functional; details: A-431, 96 h
[6] = molecular target: Proto-oncogene tyrosine-protein kinase Src (Homo sapiens, UniProt P12931); test: Inhibition of wild type cSrc (251 to 533 residues) (unknown origin) pre-incubated for 30 mins before substrate and ATP addition by HTRF assay
[7] = molecular target: Proto-oncogene tyrosine-protein kinase Src (Homo sapiens, UniProt P12931, T341M); test: Inhibition of cSrc T338M mutant (unknown origin) pre-incubated for 30 mins before substrate and ATP addition by HTRF assay
[8] = molecular target: Proto-oncogene tyrosine-protein kinase Src (Homo sapiens, UniProt P12931, S348C/T341M); test: Inhibition of cSrc T338M/S345C mutant (unknown origin) pre-incubated for 30 mins before substrate and ATP addition by HTRF assay
[9] = Efflux ratio in human Caco2 cells incubated for 2 hrs; assay type: ADME, cell-based; details: Caco-2
[10] = Permeability of the compound after 16 hrs assessed as compound flux by PAMPA method; assay type: physicochemical
[11] = test system: Epidermal growth factor receptor (Homo sapiens), P00533 [L858R]; test: Inhibition of EGFR L858R mutant (unknown origin) expressed in Sf9 cells assessed as enzyme inactivation constant by enzyme kinetics assay
[12] = test system: Epidermal growth factor receptor (Homo sapiens), P00533 [L858R,T790M]; test: Inhibition of EGFR L858R/T790M mutant (unknown origin) expressed in Sf9 cells assessed as enzyme inactivation constant by enzyme kinetics assay
[13] = molecular target: T2, Epidermal growth factor receptor; test: Inhibition of EGFR L858R mutant (unknown origin) expressed in Sf9 cells by enzyme kinetics assay
[14] = molecular target: T1, Epidermal growth factor receptor; test: Inhibition of EGFR L858R/T790M mutant (unknown origin) expressed in Sf9 cells by enzyme kinetics assay
[15] = Kinetic solubility in 50 mM Hepes buffer at pH 7.4; assay type: physicochemical; details: read-out: Kinetic_solubility
[16] = test system: Epidermal growth factor receptor (Homo sapiens), P00533 [T790M]; test: Binding affinity to EGFR T790M mutant (unknown origin) expressed in Sf9 cells by ESI-MS method
[17] = test system: Epidermal growth factor receptor (Homo sapiens), P00533 [T790M]; test: Binding affinity to EGFR T790M mutant (unknown origin) expressed in Sf9 cells assessed as covalent modification at Cys797 residue nano-LC-MS/MS method
Homo sapiens = organism: Homo sapiens; test: Selectivity index, ratio of IC50 for cSrc T338M mutant (unknown origin) to IC50 for cSrc T338M/S345C mutant (unknown origin)
[18] = Growth inhibition of human PC9 cells with del1 deletion incubated for 96 hrs by cell-titer Glo reagent based assay; assay type: functional; details: PC-9, 96 h
NCI-H1975 [19] = test: Growth inhibition of human NCI-H1975 cells expressing EGFR L858R/T790M mutant at 30 um incubated for 96 hrs by cell-titer Glo reagent based assay; assay type: functional

IC50 [1] [nM] | IC50 [2] [nM] | IC50 [3] [nM] | SMILES | GI50 [5] [nM] | further results
2900 | 300 | 400 | C=CC(=O)Nc1cccc(Oc2nc(Nc3n[nH]c4ccc(Br)cc34)cc(N3CCN(C)CC3)n2)c1 | 8600 | GI50 (NCI-H661): 11000 nM; GI50 (NCI-H1975 [4]): 18000 nM
> 10000 | 4900 | > 10000 | Cc1cc(Nc2cc(N3CCN(C)CC3)nc(Oc3cccc(N)c3)n2)n[nH]1 | > 30000 | GI50 (A-431): 20000 nM; GI50 (NCI-H1975 [4]): > 30000 nM
> 10000 | 700 | 1900 | CCC(=O)Nc1ccc(Oc2nc(Nc3cc(C)[nH]n3)cc(N3CCN(C)CC3)n2)cc1 | – | –
> 10000 | 8600 | > 10000 | CCC(=O)Nc1cccc(Oc2nc(Nc3n[nH]c4ccccc34)cc(N3CCN(C)CC3)n2)c1 | > 30000 | GI50 (NCI-H661): 22000 nM; IC50 [8]: 260 nM; GI50 (NCI-H1975 [4]): 30000 nM
3900 | 600 | 2300 | Cc1cc(Nc2cc(N3CCN(C)CC3)nc(Oc3cccc([N+](=O)[O-])c3)n2)n[nH]1 | 8900 | GI50 (A-431): 3500 nM; GI50 (NCI-H1975 [4]): 6500 nM
1700 | 70 | 500 | C=CC(=O)Nc1cccc(Oc2nc(Nc3n[nH]c4ccccc34)cc(N3CCN(C)CC3)n2)c1 | 2500 | efflux ratio at 2 h [9]: 35; permeability [10]: 47%; Kinact [11]: 0.055 min⁻¹; Kinact [12]: 0.137 min⁻¹; GI50 (NCI-H661): 8600 nM; Ki [13]: 833 nM; Ki [14]: 0.32 nM; solubility kinetic [15]: 277 µM (≈ 130 µg/mL); IC50 [8]: 17 nM; GI50 (NCI-H1975 [4]): 9800 nM; Activity [16]: Active; Activity [17]: Active
900 | 2100 | 600 | C=CC(=O)Nc1ccccc1Oc1nc(Nc2cc(C)[nH]n2)cc(N2CCN(C)CC2)n1 | – | –
2000 | 1500 | 2100 | Cc1cc(Nc2cc(N3CCN(C)CC3)nc(Oc3ccc(NC(=O)/C=C/C(F)(F)F)cc3)n2)n[nH]1 | – | –
> 10000 | 1900 | 2000 | C=CC(=O)Nc1cccc(Oc2nc(Nc3cc[nH]n3)cc(N3CCN(C)CC3)n2)c1 | – | –
> 10000 | 1600 | 1900 | Cc1cc(Nc2cc(N3CCN(C)CC3)nc(Oc3ccccc3[N+](=O)[O-])n2)n[nH]1 | – | –
3100 | 2400 | 1800 | C=CC(=O)Nc1ccc(Oc2nc(Nc3cc(C)[nH]n3)cc(N3CCN(C)CC3)n2)cc1 | – | –
> 10000 | > 10000 | > 10000 | CCC(=O)Nc1ccccc1Oc1nc(Nc2cc(C)[nH]n2)cc(N2CCN(C)CC2)n1 | – | –
> 10000 | 900 | 1800 | Cc1cc(Nc2cc(N3CCN(C)CC3)nc(Oc3ccc([N+](=O)[O-])cc3)n2)n[nH]1 | – | –
> 10000 | 500 | 30 | C=CC(=O)Nc1cccc(Oc2nc(Nc3cc(C)[nH]n3)cc(N3CCN(C)CC3)n2)c1 | 8200 | efflux ratio at 2 h [9]: 32; Ratio IC50 (Homo sapiens): 5; permeability [10]: 7%; IC50 [7]: 170 nM; Kinact [11]: 0.017 min⁻¹; Kinact [12]: 0.116 min⁻¹; Ki [13]: 70.2 nM; Ki [14]: 0.64 nM; solubility kinetic [15]: 432 µM (≈ 188 µg/mL); IC50 [8]: 28 nM; GI50 (A-431): 5700 nM; GI50 (NCI-H1975 [4]): 20000 nM; Activity [16]: Active; Activity [17]: Active
> 10000 | 1400 | 2100 | Cc1cc(Nc2cc(N3CCN(C)CC3)nc(Oc3ccc(N)cc3)n2)n[nH]1 | – | –
> 10000 | > 10000 | 1900 | CCC(=O)Nc1cccc(Oc2nc(Nc3cc(C)[nH]n3)cc(N3CCN(C)CC3)n2)c1 | > 30000 | IC50 [7]: 254 nM; IC50 [8]: 349 nM; GI50 (A-431): 8400 nM; GI50 (NCI-H1975 [4]): > 30000 nM
> 10000 | > 10000 | > 10000 | CCC(=O)Nc1cccc(Oc2nc(Nc3cc[nH]n3)cc(N3CCN(C)CC3)n2)c1 | – | –
6700 | 700 | 3600 | CN(C)C/C=C/C(=O)Nc1cccc(Oc2nc(Nc3n[nH]c4ccccc34)cc(N3CCN(C)CC3)n2)c1 | > 30000 | GI50 (NCI-H661): > 30000 nM; growth inhibition (GI) (NCI-H1975 [19]): inactive

The remaining lines, values behind:

SMILES | IC50 [1] [nM] | IC50 [2] [nM] | IC50 [3] [nM] | GI50 [5] [nM] | further results
CCC(=O)Nc1ccccc1-c1nc(Nc2cc[nH]n2)c2ccccc2n1 | > 10000 | > 10000 | > 10000 | – | –
CCC(=O)Nc1ccc2c(Nc3cc[nH]n3)nc(-c3ccccc3)nc2c1 | > 10000 | 2200 | 2100 | – | IC50 [6]: 336 nM; IC50 [7]: 60 nM; IC50 [8]: 48 nM
C=CC(=O)Nc1ccc(-c2nc(Nc3cc[nH]n3)c3ccccc3n2)cc1 | > 10000 | > 10000 | > 10000 | – | –
C=CC(=O)Nc1cccc(Oc2nccc(Nc3cc(C)[nH]n3)n2)c1 | > 10000 | 900 | 1800 | – | –
CCC(=O)Nc1ccc(-c2nc(Nc3cc[nH]n3)c3ccccc3n2)cc1 | > 10000 | > 10000 | > 10000 | – | –
C=CC(=O)Nc1ccccc1-c1nc(Nc2cc[nH]n2)c2ccccc2n1 | > 10000 | 1100 | 2700 | – | –
C=CC(=O)Nc1cccc(-c2nccc(Nc3cc(C)[nH]n3)n2)c1 | > 10000 | 2500 | 2800 | – | –
CCC(=O)Nc1cccc(-c2nc(Nc3cc[nH]n3)c3ccccc3n2)c1 | 3700 | 400 | 1900 | – | –
C=CC(=O)Nc1cc(Nc2cc[nH]n2)nc(-c2ccccc2)n1 | 900 | 300 | 800 | – | Activity [16]: Active
C=CC(=O)Nc1ccc2c(Nc3cc[nH]n3)nc(-c3ccccc3)nc2c1 | > 10000 | 2200 | 1900 | – | IC50 [6]: 211 nM; IC50 [7]: 65 nM; IC50 [8]: 43 nM; GI50 (A-431): 700 nM; GI50 (NCI-H1975 [4]): 1600 nM; GI50 [18]: 1900 nM
CCC(=O)Nc1cc(Nc2cc[nH]n2)nc(-c2ccccc2)n1 | > 10000 | > 10000 | 3400 | – | –
C=CC(=O)Nc1cccc(-c2nc(Nc3cc[nH]n3)c3ccccc3n2)c1 | 1100 | 100 | 500 | – | –
C=CC(=O)Nc1cccc(Nc2nc(Nc3ccc(N4CCN(C(C)=O)CC4)cc3OC)ncc2C(F)(F)F)c1 [ROCILETINIB] | – | – | – | 30 | GI50 (NCI-H661): 1700 nM; GI50 (NCI-H1975 [4]): 30 nM
C=CC(=O)Nc1cccc(-c2nc(Nc3n[nH]c4ccccc34)cc(N3CCN(C)CC3)n2)c1 | > 10000 | 4900 | 5000 | 16000 | GI50 (NCI-H661): 12000 nM; GI50 (NCI-H1975 [4]): 11000 nM
CCC(=O)Nc1cccc(Oc2nccc(Nc3cc(C)[nH]n3)n2)c1 | > 10000 | > 10000 | > 10000 | – | –
C=CC(=O)Nc1cccc(Oc2nc(Nc3n[nH]c4ccccc34)cc(N3CCN(C(C)=O)CC3)n2)c1 | 3600 | 200 | 600 | 25000 | GI50 (NCI-H661): > 30000 nM; growth inhibition (GI) (NCI-H1975 [19]): inactive

— ChEMBL document CHEMBL3603765, “Targeting Drug Resistance in EGFR with Covalent Inhibitors: A Structure-Based Design Approach” (J Med Chem, 2015)
